# Assay results published in patent publication US9957265B2, “N-(2-cyano heterocyclyl) pyrazolo pyridones as janus kinase inhibitors” (Merck Sharp & Dohme Corp., priority 2013, dated 2018).
# Assays:
# [1] = target: JAK1 (Homo sapiens (Human), UniProt P23458); experiment: Jak Biochemical HTRF Assay (JAK1); conditions: recombinant GST-tagged catalytic domain, [ATP] 31.8 μM, unit not given (compound concentrations tested given in nM)
# Text: Jak Biochemical HTRF Assay Protocol
# Subsequent reagent additions employed an Agilent Bravo.
# [2] = target: JAK2 (Homo sapiens (Human), UniProt O60674); experiment: Jak Biochemical HTRF Assay (JAK2); conditions: JAK2 IC50, recombinant GST-tagged catalytic domain, [ATP] 8.5 μM, unit not given (compound concentrations tested given in nM)
# JAK2, sequence (O60674 849-1124): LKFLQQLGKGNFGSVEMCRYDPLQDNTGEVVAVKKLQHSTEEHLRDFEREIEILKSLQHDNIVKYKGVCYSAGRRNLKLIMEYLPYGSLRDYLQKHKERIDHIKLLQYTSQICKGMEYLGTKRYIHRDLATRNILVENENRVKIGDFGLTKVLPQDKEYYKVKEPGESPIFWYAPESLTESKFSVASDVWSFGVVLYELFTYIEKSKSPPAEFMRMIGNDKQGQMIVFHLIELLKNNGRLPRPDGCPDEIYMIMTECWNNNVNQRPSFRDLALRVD
# JAK1, sequence (P23458 875-1153): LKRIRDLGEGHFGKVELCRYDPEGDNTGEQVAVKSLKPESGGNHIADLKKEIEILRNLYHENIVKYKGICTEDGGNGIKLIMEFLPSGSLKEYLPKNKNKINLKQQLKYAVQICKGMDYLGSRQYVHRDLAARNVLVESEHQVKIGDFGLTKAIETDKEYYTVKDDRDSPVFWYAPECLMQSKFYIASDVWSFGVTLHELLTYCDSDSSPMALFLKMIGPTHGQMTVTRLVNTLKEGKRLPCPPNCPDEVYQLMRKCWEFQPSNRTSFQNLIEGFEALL
IC50 [1],IC50 [2],SMILES
1.75 nM,14.6 nM,"C[S+]([O-])c1cc(Nc2nn([C@H]3COCC[C@@H]3C#N)c3cc[nH]c(=O)c23)ccc1Cl (mixture of isomers) [Example 3-4, (3R,4S)-3-(3-{[4-chloro-3-((S and R)methylsulfinyl)phenyl]amino}-4-oxo-4,5-dihydro-1H-pyrazolo[4,3-c]pyridin-1-yl)tetrahydro-2H-pyran-4-carbonitrile]"
0.06 nM,0.22 nM,"N#C[C@H]1CCOC[C@@H]1n1nc(Nc2ccc(C(N)C(F)(F)F)cc2)c2c(=O)[nH]ccc21 (single isomer, unassigned) [Example 1-8, (3R,4S)-3-(3-((4-((R or S)-1-amino-2,2,2-trifluoroethyl)phenyl)amino)-4-oxo-4,5-dihydro-1H-pyrazolo[4,3-c]pyridin-1-yl)tetrahydro-2H-pyran-4-carbonitrile]"
0.09 nM,0.29 nM,"N#C[C@H]1CCOC[C@@H]1n1nc(Nc2ccc(C(N)C(F)(F)F)cc2)c2c(=O)[nH]ccc21 (single isomer, unassigned) [Example 1-9, (3R,4S)-3-(3-((4-((S or R)-1-amino-2,2,2-trifluoroethyl)phenyl)amino)-4-oxo-4,5-dihydro-1H-pyrazolo[4,3-c]pyridin-1-yl)tetrahydro-2H-pyran-4-carbonitrile]"
0.07 nM,0.13 nM,"CN(C)C(c1ccc(Nc2nn([C@H]3COCC[C@@H]3C#N)c3cc[nH]c(=O)c23)cc1)C(F)(F)F (single isomer, unassigned) [Example 1-18, (3R,4S)-3-[3-({4-[(1R, or 1S)-1-(dimethylamino)-2,2,2-trifluoroethyl]phenyl}amino)-4-oxo-4,5-dihydro-1H-pyrazolo[4,3-c]pyridin-1-yl]tetrahydro-2H-pyran-4-carbonitrile]"
0.05 nM,0.08 nM,"CN(C)C(c1ccc(Nc2nn([C@H]3COCC[C@@H]3C#N)c3cc[nH]c(=O)c23)cc1)C(F)(F)F (single isomer, unassigned) [Example 1-19, (3R,4S)-3-[3-({4-[(1S or 1R)-1-(dimethylamino)-2,2,2-trifluoroethyl]phenyl}amino)-4-oxo-4,5-dihydro-1H-pyrazolo[4,3-c]pyridin-1-yl]tetrahydro-2H-pyran-4-carbonitrile]"
17.3 nM,21.2 nM,"CC(C)(C)S(=O)(=O)c1ccc(Nc2nn([C@H]3COCCC[C@@H]3C#N)c3cc[nH]c(=O)c23)cc1 (single isomer, unassigned) [Example 1-22, (3R,4S or 3S,4R)-3-(3-{[4-(tert-butylsulfonyl)phenyl]amino}-4-oxo-4,5-dihydro-1H-pyrazolo[4,3-c]pyridin-1-yl)oxepane-4-carbonitrile]"
0.25 nM,0.69 nM,"CC(C)(C)S(=O)(=O)c1ccc(Nc2nn([C@@H]3COCCC[C@H]3C#N)c3cc[nH]c(=O)c23)cc1 (single isomer, unassigned) [Example 1-23, (3S,4R or 3R,4S)-3-(3-{[4-(tert-butylsulfonyl)phenyl]amino}-4-oxo-4,5-dihydro-1H-pyrazolo[4,3-c]pyridin-1-yl)oxepane-4-carbonitrile]"
12.4 nM,14.7 nM,"CC(C)(C)S(=O)(=O)c1ccc(Nc2nn(C3COCCC[C@H]3C#N)c3cc[nH]c(=O)c23)cc1 (single isomer, unassigned) [Example 1-24, (3R,4R or 3S,4S)-3-(3-{[4-(tert-butylsulfonyl)phenyl]amino}-4-oxo-4,5-dihydro-1H-pyrazolo[4,3-c]pyridin-1-yl)oxepane-4-carbonitrile]"
0.71 nM,,"CC(C)(C)S(=O)(=O)c1ccc(Nc2nn([C@H]3CCOCC[C@@H]3C#N)c3cc[nH]c(=O)c23)cc1 (single isomer, unassigned) [Example 1-26, (4S,5S or 4R,5R)-5-(3-{[4-(tert-butylsulfonyl)phenyl]amino}-4-oxo-4,5-dihydro-1H-pyrazolo[4,3-c]pyridin-1-yl)oxepane-4-carbonitrile]"
22.4 nM,,"CC(C)(C)S(=O)(=O)c1ccc(Nc2nn([C@@H]3CCOCC[C@H]3C#N)c3cc[nH]c(=O)c23)cc1 (single isomer, unassigned) [Example 1-27, (4R,5R or 4S,5S)-5-(3-{[4-(tert-butylsulfonyl)phenyl]amino}-4-oxo-4,5-dihydro-1H-pyrazolo[4,3-c]pyridin-1-yl)oxepane-4-carbonitrile]"
5.34 nM,,"CC(C)(C)S(=O)(=O)c1ccc(Nc2nn([C@H]3CCOCC[C@H]3C#N)c3cc[nH]c(=O)c23)cc1 (single isomer, unassigned) [Example 1-28, (4R,5S or 4S,5R)-5-(3-{[4-(tert-butylsulfonyl)phenyl]amino}-4-oxo-4,5-dihydro-1H-pyrazolo[4,3-c]pyridin-1-yl)oxepane-4-carbonitrile]"
4.38 nM,,"CC(C)(C)S(=O)(=O)c1ccc(Nc2nn([C@@H]3CCOCC[C@@H]3C#N)c3cc[nH]c(=O)c23)cc1 (single isomer, unassigned) [Example 1-29, (4S,5R or 4R,5S)-5-(3-{[4-(tert-butylsulfonyl)phenyl]amino}-4-oxo-4,5-dihydro-1H-pyrazolo[4,3-c]pyridin-1-yl)oxepane-4-carbonitrile]"
0.08 nM,,"CC(C)(C)NC(c1ccc(Nc2nn([C@H]3COCC[C@@H]3C#N)c3cc[nH]c(=O)c23)cc1)C(F)(F)F (single isomer, unassigned) [Example 1-50, (3R,4S)-3-[3-({4-[(1R or 1S)-1-(tert-butylamino)-2,2,2-trifluoroethyl]phenyl}amino)-4-oxo-4,5-dihydro-1H-pyrazolo[4,3-c]pyridine-1-yl]tetrahydro-2H-pyran-4-carbonitrile]"
0.08 nM,,"CC(C)(C)NC(c1ccc(Nc2nn([C@H]3COCC[C@@H]3C#N)c3cc[nH]c(=O)c23)cc1)C(F)(F)F (single isomer, unassigned) [Example 1-51, (3R,4S)-3-[3-[3-({4-[(1S or 1R)-1-(tert-butylamino)-2,2,2-trifluoroethyl]phenyl}amino)-4-oxo-4,5-dihydro-1H-pyrazolo[4,3-c]pyridin-1-yl]tetrahydro-2H-pyran-4-carbonitrile]"
0.06 nM,,"N#C[C@H]1CCOC[C@@H]1n1nc(Nc2ccc(C(N3CCC3)C(F)(F)F)cc2)c2c(=O)[nH]ccc21 (single isomer, unassigned) [Example 1-56, (3R,4S)-3-[3-({4-[(1R or 1S)-1-azetidin-1-yl-2,2,2-trifluoroethyl]phenyl}amino)-4-oxo-4,5-dihydro-1H-pyrazolo[4,3-c]pyridin-1-yl]tetrahydro-2H-pyran-4-carbonitrile]"
0.09 nM,,"N#C[C@H]1CCOC[C@@H]1n1nc(Nc2ccc(C(N3CCC3)C(F)(F)F)cc2)c2c(=O)[nH]ccc21 (single isomer, unassigned) [Example 1-57, (3R,4S)-3-[3-({4-[(1S or 1R)-1-azetidin-1-yl-2,2,2-trifluoroethyl]phenyl}amino)-4-oxo-4,5-dihydro-1H-pyrazolo[4,3-c]pyridin-1-yl]tetrahydro-2H-pyran-4-carbonitrile]"
0.06 nM,,"N#C[C@H]1CCOCC1n1nc(Nc2ccc(C3(C(F)(F)F)CCNC3)cc2)c2c(=O)[nH]ccc21 (single isomer, unassigned) [Example 1-98, (3R,4S)-3-(4-oxo-3-((4-((S or R)-3-(trifluoromethyl)pyrrolidin-3-yl)phenyl)amino)-4,5-dihydro-1H-pyrazolo[4,3-c]pyridin-1-yl)tetrahydro-2H-pyran-4-carbonitrile]"
0.07 nM,,"N#C[C@H]1CCOCC1n1nc(Nc2ccc(C3(C(F)(F)F)CCNC3)cc2)c2c(=O)[nH]ccc21 (single isomer, unassigned) [Example 1-99, (3R,4S)-3-(4-oxo-3-((4-((S or R)-3-(trifluoromethyl)pyrrolidin-3-yl)phenyl)amino)-4,5-dihydro-1H-pyrazolo[4,3-c]pyridin-1-yl)tetrahydro-2H-pyran-4-carbonitrile]"
0.07 nM,,"CC1(C)CC2(c3ccc(Nc4nn([C@H]5COCC[C@@H]5C#N)c5cc[nH]c(=O)c45)cc3)CCC1C(=O)O2 (stereo partly drawn) [Example 1-20, (3R,4S)-3-(3-{[4-(5,5-dimethyl-3-oxo-2-oxabicyclo[2.2.2]oct-1-yl)phenyl]amino}-4-oxo-4,5-dihydro-1H-pyrazolo[4,3-c]pyridin-1-yl)tetrahydro-2H-pyran-4-carbonitrile]"
0.08 nM,,"CC1(C)CC2(c3ccc(Nc4nn([C@H]5COCC[C@@H]5C#N)c5cc[nH]c(=O)c45)cc3)CCC1C(=O)O2 (stereo partly drawn) [Example 1-21, (3R,4S)-3-(3-{[4-(5,5-dimethyl-3-oxo-2-oxabicyclo[2.2.2]oct-1-yl)phenyl]amino}-4-oxo-4,5-dihydro-1H-pyrazolo[4,3-c]pyridin-1-yl)tetrahydro-2H-pyran-4-carbonitrile]"
0.21 nM,,"CC(C)(N)c1ccc(Nc2nn([C@H]3COCC[C@@H]3C#N)c3cc[nH]c(=O)c23)cc1 [Example 1-60, (3R,4S)-3-(3-{[4-(1-amino-1-methylethyl)phenyl]amino}-4-oxo-4,5-dihydro-1H-pyrazolo[4,3-c]pyridin-1-yl)tetrahydro-2H-pyran-4-carbonitrile]"
0.07 nM,,"CC(C)C(C)(C)S(=O)(=O)c1ccc(Nc2nn([C@H]3COCC[C@@H]3C#N)c3cc[nH]c(=O)c23)cc1 [Example 1-66, (3R,4S)-3-[4-oxo-3-({4-[(1,1,2-trimethylpropyl)sulfonyl]phenyl}amino)-4,5-dihydro-1H-pyrazolo[4,3-c]pyridin-1-yl]tetrahydro-2H-pyran-4-carbonitrile]"
0.15 nM,,"CC1CN(S(=O)(=O)c2ccc(Nc3nn([C@H]4COCC[C@@H]4C#N)c4cc[nH]c(=O)c34)cc2)C1 [Example 1-70, (3R,4S)-3-[3-({4-[(3-methylazetidin-1-yl)sulfonyl]phenyl}amino)-4-oxo-4,5-dihydro-1H-pyrazolo[4,3-c]pyridin-1-yl]tetrahydro-2H-pyran-4-carbonitrile]"
